Results as given in patent US20130317055A1, “NEURONAL NICOTINIC AGONIST AND METHODS OF USE” (ABBVIE INC., priority 2012, published 2013).

Experiments:
[1] = system: clinically stable subjects with schizophrenia; assay: Clinical Study A: CANTAB cognition battery; type: in vivo, human; conditions: 10 mg and 25 mg
Text: A Phase 2a proof-of-concept (POC) study in clinically stable subjects with schizophrenia who were clinically stable and received stable doses of atypical antipsychotic therapy. The study was a Phase 2, multi-center, randomized, double-blind, placebo-controlled, parallel group study designed to evaluate the safety and efficacy of doses of (4s)-4-(5-phenyl-1,3,4-thiadiazol-2-yloxy)-1-azatricyclo[3.3.1.1^3,7]decane (Compound A) in clinically stable male and female subjects (ages 20 to 55, inclusive) with a Diagnostic and Statistical Manual of Mental Disorders Fourth Edition, Text Revision (DSM-IV-TR) diagnosis of schizophrenia. […] The criteria for clinical stability was determined by a combination of retrospective data (over the 4 months prior to the start of Screening, which will be supported by clinical records, patient, identified responsible contact person, and physician interviews), and prospective data assessed during the Prospective Stabilization Period of 28 to 42 days duration. […]
The primary endpoint was the MCCB composite score, and the primary endpoint analysis was the change on the MCCB composite score from baseline to endpoint versus placebo. Other secondary measures included the MCCB domains, the NSA-16, the CANTAB cognition battery (measured at different time points from the MCCB), and the UPSA-2. […]

[2] = system: clinically stable subjects with schizophrenia; assay: Clinical Study A: disposition of subjects, discontinuations and tolerability; type: in vivo, human
Text: A Phase 2a proof-of-concept (POC) study in clinically stable subjects with schizophrenia who were clinically stable and received stable doses of atypical antipsychotic therapy. The study was a Phase 2, multi-center, randomized, double-blind, placebo-controlled, parallel group study designed to evaluate the safety and efficacy of doses of (4s)-4-(5-phenyl-1,3,4-thiadiazol-2-yloxy)-1-azatricyclo[3.3.1.1^3,7]decane (Compound A) in clinically stable male and female subjects (ages 20 to 55, inclusive) with a Diagnostic and Statistical Manual of Mental Disorders Fourth Edition, Text Revision (DSM-IV-TR) diagnosis of schizophrenia. Psychiatric diagnoses were confirmed using the Mini-International Neuropsychiatric Interview (MINI) version 6.0.0. The criteria for clinical stability was determined by a combination of retrospective data (over the 4 months prior to the start of Screening, which will be supported by clinical records, patient, identified responsible contact person, and physician interviews), and prospective data assessed during the Prospective Stabilization Period of 28 to 42 days duration.
The study was a Phase 2, multi-center, randomized, double-blind, placebo-controlled, parallel group study designed to evaluate the safety and efficacy of doses of (4s)-4-(5-phenyl-1,3,4-thiadiazol-2-yloxy)-1-azatrieyclo[3.3.1.1^3,7]decane, which is also recognized as Compound A, in treating cognitive deficits in subjects with schizophrenia who were clinically stable and receiving one or two atypical antipsychotic medications. Study drug was administered orally.
The study consisted of a screening period of at least 28 and up to 42 days, a 84-day outpatient treatment period, a 14-day post-treatment period, and a post-treatment follow-up period. The screening period consisted of three visits: Screening Visit 1, Screening Visit 2, and Day −1. Upon completion of Day −1 procedures, eligible subjects were randomized through an Interactive Voice Response/Interactive Web-Based (IVR/IWB) system. Subjects were randomized in an equal ratio to one of three treatment groups (placebo, 10 mg Compound A, or 25 mg Compound A).
Subjects were randomized in a 1:1:1 ratio with placebo, 10 mg QD Compound A, of 25 mg Compound A. Each subject was instructed to take study drug once-daily in the morning for 12 weeks. Each daily dose was preferably taken with food. The subject and investigator were blinded to the treatment assignment throughout the study. The treatment assignments for the study subjects are shown below in Table 1.
Subjects completed 2 visits during the screening period. Study site personnel contacted each subject by telephone on Day 21, 35, and 70 of the 84-day treatment period to discuss study drug compliance, antipsychotic medication compliance, concomitant medication use, substance use, and any adverse events.
A total of 207 subjects were randomized.

c1ccc(-c2nnc(O[C@@H]3C4CC5C[C@H]3C[N@](C5)C4)s2)cc1 [Compound A, (4s)-4-(5-phenyl-1,3,4-thiadiazol-2-yloxy)-1-azatricyclo[3.3.1.1^3,7]decane]
CANTAB battery results relative to MCCB results [1]: consistent
Discontinuation, primary reason Adverse event, % of treated subjects ([2]; 10 mg QD): (5.8) %
Discontinuation, primary reason Adverse event, % of treated subjects ([2]; 25 mg QD): (4.5) %
Discontinuation, primary reason Adverse event, % of treated subjects ([2]; Compound A Overall): (5.1) %
Tolerability ([2]; human patients with schizophrenia, summary statement): generally well tolerated
Tolerability ([2]; subjects with schizophrenia, doses up to 25 mg QD, including 10 mg QD and 25 mg QD): well tolerated
